From BindingDB's records for patent US12065447 (Shanghai Institute of Materia Medica, 2024) come the findings set out here.

Usually IC50 stands for the midpoint of a concentration-inhibition curve. A high value points to lower potency.

SMILES strings stand for the structures.

The target in this assay is T1, Receptor-interacting serine/threonine-protein kinase 1 (Homo sapiens, UniProt Q13546).
T1 sequence (Q13546 whole entry): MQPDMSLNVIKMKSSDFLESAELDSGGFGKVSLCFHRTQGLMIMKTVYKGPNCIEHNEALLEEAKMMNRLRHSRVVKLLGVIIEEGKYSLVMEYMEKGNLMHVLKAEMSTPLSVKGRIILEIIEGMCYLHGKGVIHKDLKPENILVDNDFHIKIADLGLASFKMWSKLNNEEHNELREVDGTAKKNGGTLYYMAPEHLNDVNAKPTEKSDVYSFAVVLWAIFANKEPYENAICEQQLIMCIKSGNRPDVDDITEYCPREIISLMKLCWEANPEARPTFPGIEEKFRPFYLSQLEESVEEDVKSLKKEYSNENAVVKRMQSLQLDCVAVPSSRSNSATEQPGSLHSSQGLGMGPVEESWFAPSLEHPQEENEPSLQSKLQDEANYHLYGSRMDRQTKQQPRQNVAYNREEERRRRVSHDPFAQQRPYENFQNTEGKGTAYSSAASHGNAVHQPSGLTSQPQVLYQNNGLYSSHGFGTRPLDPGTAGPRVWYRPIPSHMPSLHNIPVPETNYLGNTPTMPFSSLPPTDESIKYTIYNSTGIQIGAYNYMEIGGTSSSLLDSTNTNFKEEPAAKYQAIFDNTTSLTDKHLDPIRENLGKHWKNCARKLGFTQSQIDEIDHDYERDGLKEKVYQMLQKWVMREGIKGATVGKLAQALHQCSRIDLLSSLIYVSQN
Description: Cell Viability Test. The text has this: TNFalpha induced U937 cell programmed necroptosis system was used to screen for compounds with RIP 1 kinase inhibitory activity.
Take `CN1C(=O)[C@@H](NC(=O)c2ncc(Cc3ccccc3)o2)COc2ccc(C#Cc3cccnc3)cc21` [US12065447, Compound ZB-R-20]: the IC50 was less than 0.5 nM.
For `CN1C(=O)[C@@H](NC(=O)c2ncn(Cc3ccccc3)n2)COc2ccc(C#Cc3cccnc3)cc21` [US12065447, Compound ZB-R-24] the value was less than 1 nM; for `CN1C(=O)[C@@H](NC(=O)c2cc(Cc3ccccc3)ccn2)COc2ccc(C#Cc3cccnc3)cc21` [US12065447, Compound ZB-R-25], less than 2 nM; for `Cc1c(C#Cc2cnn(C)c2)sc2c1SC[C@H](NC(=O)c1nnc(Cc3ccccc3)[nH]1)C(=O)N2C` [US12065447, Compound ZB-R-39], 0.17 nM.
For `Cc1c(C#Cc2cccnc2)sc2c1SC[C@H](NC(=O)c1nnc(Cc3ccccc3)[nH]1)C(=O)N2C` [US12065447, Compound ZB-R-42] the value was 0.32 nM; for `Cc1c(C#CC2CCOCC2)sc2c1SC[C@H](NC(=O)c1nnc(Cc3ccccc3)[nH]1)C(=O)N2C` [US12065447, Compound ZB-R-44], 4.08 nM; for `Cc1c(C#CC2CC2)sc2c1SC[C@H](NC(=O)c1nnc(Cc3ccccc3)[nH]1)C(=O)N2C` [US12065447, Compound ZB-R-45], 8.13 nM.
`Cc1c(C#Cc2ccccn2)sc2c1SC[C@H](NC(=O)c1nnc(Cc3ccccc3)[nH]1)C(=O)N2C` [US12065447, Compound ZB-R-46]: half-maximal inhibition (IC50) was put at 5.39 nM.
To `Cc1c(C#Cc2ccncc2)sc2c1SC[C@H](NC(=O)c1nnc(Cc3ccccc3)[nH]1)C(=O)N2C` [US12065447, Compound ZB-R-47] belongs 0.39 nM.
For `CN1C(=O)[C@@H](NC(=O)c2n[nH]c(Cc3ccccc3)n2)COc2ccc(C#Cc3ccccn3)cc21` [US12065447, Compound ZB-R-50] the value was 0.26 nM; for `CN1C(=O)[C@@H](NC(=O)c2n[nH]c(Cc3ccccc3)n2)COc2ccc(C#Cc3cccnc3)cc21` [US12065447, Compound ZB-R-51], less than 0.5 nM.
In the case of `CN1C(=O)[C@@H](NC(=O)c2n[nH]c(Cc3ccccc3)n2)COc2ccc(C#Cc3ccncc3)cc21` [US12065447, Compound ZB-R-52], inhibition was half-maximal at 0.42 nM (IC50).
For `CN1C(=O)[C@@H](NC(=O)c2n[nH]c(Cc3ccccc3)n2)COc2ccc(C#Cc3cnn(C)c3)cc21` [US12065447, Compound ZB-R-53] the value was 0.11 nM; for `CN1C(=O)[C@@H](NC(=O)c2n[nH]c(Cc3ccccc3)n2)COc2ccc(C#CC3CCOCC3)cc21` [US12065447, Compound ZB-R-54], 0.1 nM.
Molecule `COCC#Cc1ccc2c(c1)N(C)C(=O)[C@@H](NC(=O)c1nnc(Cc3ccccc3)[nH]1)CO2` [US12065447, Compound ZB-R-68] registered an IC50 of 0.2 nM.
For `CN1C(=O)[C@@H](NC(=O)c2n[nH]c(Cc3ccccc3)n2)COc2ccc(C#CC(C)(C)O)cc21` [US12065447, Compound ZB-R-76] the value was 0.54 nM.
To `CN1C(=O)[C@@H](NC(=O)c2n[nH]c(Cc3ccccc3)n2)COc2ccc(C#CC3(O)COC3)cc21` [US12065447, Compound ZB-R-78] belongs 0.35 nM; to `Cc1cc([C@](C)(O)C#Cc2ccc3c(c2)N(C)C(=O)[C@@H](NC(=O)c2nnc(Cc4ccccc4)[nH]2)CO3)no1` [US12065447, Compound ZB-R-80], 0.31 nM.
For `Cc1cc([C@@](C)(O)C#Cc2ccc3c(c2)N(C)C(=O)[C@@H](NC(=O)c2nnc(Cc4ccccc4)[nH]2)CO3)no1` [US12065447, Compound ZB-R-81] the value was 0.29 nM.
For the molecule `Cc1c(C#Cc2cncn2C)sc2c1SC[C@H](NC(=O)c1nnc(Cc3ccccc3)[nH]1)C(=O)N2C` [US12065447, Compound ZB-R-82], the midpoint of inhibition, the IC50, lay at 0.3 nM.
`COCC#Cc1sc2c(c1C)SC[C@H](NC(=O)c1nnc(Cc3ccccc3)[nH]1)C(=O)N2C` [US12065447, Compound ZB-R-84]: the IC50 stood at 0.19 nM.
To `Cc1c(C#CC(C)(C)O)sc2c1SC[C@H](NC(=O)c1nnc(Cc3ccccc3)[nH]1)C(=O)N2C` [US12065447, Compound ZB-R-85] belongs 1.09 nM; to `Cc1c(C#CC2(O)COC2)sc2c1SC[C@H](NC(=O)c1nnc(Cc3ccccc3)[nH]1)C(=O)N2C` [US12065447, Compound ZB-R-87], 0.2 nM.
`Cc1cc([C@](C)(O)C#Cc2sc3c(c2C)SC[C@H](NC(=O)c2nnc(Cc4ccccc4)[nH]2)C(=O)N3C)no1` [US12065447, Compound ZB-R-89] gave a half-inhibitory concentration (IC50) of 1.7 nM.
